Experimental data taken from patent publication US4562275A, “Antitumor platinum complexes” (priority 1984, dated 1985).
Several values for one entry are separate records, joined by “and”; a condition that tells them apart may be missing. Identical values can stand only once.

Experiments:
L1210 leukemia = assay: Antitumor activity vs transplantable L1210 leukemia (ip) in mice; assay type: in vivo, mouse; settings: for Max % T/C: dying mice only; for OD (optimum dose): optimum dose from the L1210 test
From the text: The antitumor activities of the complexes provided by the present invention have been determined against L-1210 leukemia in the mouse and, for certain of the complexes, against other mouse tumor systems.
(§1) Results of antitumor testing against the transplantable mouse tumors L1210 leukemia, cisplatin-resistant L1210 leukemia, B16 melanoma, Madison 109 lung carcinoma and colon 26 carcinoma are shown below in Tables 1 and 2.
In Table 1 are shown the maximum % T/C values obtained for each platinum compound versus L1210 leukemia using both single and qd 1→5 dosing.
(§2) The methods used to evaluate the platinum complexes for antitumor activity and toxicity in animals are summarized below. These methods have been published elsewhere in more detail (Rose, et al. Cancer Treat. Rep. 66: 135, 1982; Florczyk, et al, Cancer Treat. Rep. 66: 187, 1982).
(§3) The parent line of L1210 leukemia (L1210) was maintained in DBA/2 mice by ip transplantation of 10^5 cells at weekly intervals. […] B16 malenoma (B16) was maintained by sc transplant in C57BL/6 mice every two weeks. Madison 109 lung carcinoma (M109) and colon 26 carcinoma (C26) were maintained by sc transplant in BALB/c mice every two weeks.
(§4) The level and route of tumor inoculum, host, group size, and drug treatment schedule and route for each tumor type are summarized below in Table 6. Each complex was evaluated initially against L1210 at 4 dose levels per schedule selected on the basis of lethality data provided by the Wadley Institute. In subsequent experiments with the other tumors the complexes were evaluated at a minimum of 3 dose levels selected on the basis of maximum tolerated levels in the L1210 experiments. Cisplatin-treated groups and a saline-treated (or untreated) tumor control group were included in each experiment.
(§5) The L1210 experiments were terminated on Day 30 whereas the B16, C26 and M109 experiments were terminated on Day 60 (some C26 experiments were terminated on Day 75). Mice alive at the termination day were autopsied and considered cured if no tumor was visible. […] A complex was considered active if it produced a % T/C value ≥125.

B16 melanoma = assay: Antitumor activity vs ip B16 melanoma in mice; assay type: in vivo, mouse; set-up: O.D.: unit not given here; settings: for O.D.: ip B16 (3×; 9×); for Max. % T/C: ip B16 (3×; 9×): q4d × 3 or qd 1-9, ip, dying mice only
From the text: as §2, §3
The level and route of tumor inoculum, host, group size, and drug treatment schedule and route for each tumor type are summarized below in Table 6. Each complex was evaluated initially against L1210 at 4 dose levels per schedule selected on the basis of lethality data provided by the Wadley Institute.
as §5

[1] = system: L1210/CDDP (cisplatin resistant line of L1210 leukemia); assay: Antitumor activity vs cisplatin-resistant L1210 leukemia (L1210/CDDP) in mice; assay type: in vivo, mouse; settings: for Cures/total / O.D. (optimal dose): Day 1; for Max % T/C: Day 1, dying mice only
From the text: Results of antitumor testing against the transplantable mouse tumors L1210 leukemia, cisplatin-resistant L1210 leukemia, B16 melanoma, Madison 109 lung carcinoma and colon 26 carcinoma are shown below in Tables 1 and 2. […]
as §2, §3, §4, §5

BDF1 mice [2] = assay: Nephrotoxicity: effect on blood urea nitrogen (BUN) in BDF1 mice; settings: for BUN↑, Mouse: effect relative to cisplatin
Procedure: The other compounds were in such short supply that they were tested for effects on BUN values using the optimum dose (O.D.) from the L1210 test for dose selection.
The toxicity studies were done in male BDF1 mice (25-29 gm) and castrated male Fitch ferrets (1-1.5 kg).
The complexes that were active against L1210 were evaluated for nephrotoxicity by determining their effects on blood urea nitrogen (BUN) levels in mice. Groups of 40-50 mice/experiment were bled from the retro-orbital plexus and individual BUN values determined by a modified urease method using a Centrifichem System 400. The test complex, or saline for controls, was given at several dose levels (5-10 mice/dose) in single ip injections. The highest dose of the complex usually corresponded to its LD50 value or 1.5 times its optimal single dose in the L1210 experiment. At least two lower doses were included to evaluate dose-related effects. The BUN values were measured 4 and 7 days after dosing. BUN values ≥30 mg% were considered indicative of drug-induced nephrotoxicity.

M109 carcinoma = assay: Antitumor activity vs ip M109 (Madison 109 lung) carcinoma in mice; assay type: in vivo, mouse; set-up: O.D.: unit not given here; settings: for O.D.: ip M109 (2×; 4×); for Max. % T/C: ip M109 (2×; 4×): q3d × 2 or qd 1-4, ip, dying mice only
From the text: as §1, §2, §3, §4, §5
8 q3d^a × 2 or qd 1-4, ip

C26 carcinoma = assay: Antitumor activity vs ip C26 (colon 26) carcinoma in mice; assay type: in vivo, mouse; set-up: O.D.: unit not given here; settings: for O.D.: ip C26 (2×; 4×); for Max. % T/C: ip C26 (2×; 4×): q3d × 2 or qd 1-4, ip, dying mice only
From the text: as §1, §2, §3, §4, §5
8 q3d^b × 2 or qd 1-4, ip

BDF1 mice [3] = assay: Deaths (D.14) in the BUN test in BDF1 mice; assay type: in vivo, mouse
[4] = Solubility stated in the preparation examples
ferret = assay: Emetic effects (and lethality) in the ferret; assay type: in vivo, castrated male Fitch ferrets; settings: for No. With Emesis/No. tested: 6 h observation
Procedure: Selected complexes were evaluated for emetic effects in ferrets. […] The time to the first emetic episode (retching and expulsion of vomitus) and the number of episodes were recorded. […] Subsequent test doses were selected based on the emetic response and lethality of the initial dose.

[5] = L1210, single dose Day 1, ip, (a), (b) determinations
[6] = L1210, single dose Day 1, ip, dose giving the Max % T/C, same order

Row | SMILES | O.D. (optimal dose) (L1210 leukemia; L1210, QD 1 → 5, ip) | Max % T/C (L1210 leukemia; L1210, QD 1 → 5, ip) | Max % T/C (L1210 leukemia; [5]) | O.D. (optimal dose) (L1210 leukemia; [6]) | O.D. (B16 melanoma) | Max. % T/C (B16 melanoma) [%] | Cures/total [1] | O.D. (optimal dose) [1] [mg/kg/inj] | Max % T/C [1] [%] | BUN↑, Mouse (BDF1 mice [2]) | O.D. (M109 carcinoma) | Max. % T/C (M109 carcinoma) [%] | O.D. (C26 carcinoma) | Max. % T/C (C26 carcinoma) [%] | OD (optimum dose) (L1210 leukemia) [mg/kg/ip] | further results
1 | N[C@@H]1CCCC[C@H]1N.O=C([O-])CCC(=O)C(=O)[O-].[Pt+2] (relative stereo) [Example 14, 2-ketoglutarato trans(-)-1,2-diaminocyclohexane platinum(II)] | 16 mg/kg/inj | 250% | 214% and 193% | 16 mg/kg/inj | 3 | 135 | 2/6 | 12 | 169 | – | – | – | – | – | – | –
2 | NCC1(N)CCCCCCC1.[O-]B([O-])O.[Pt+2] [Example 13, borato 1-aminomethylcyclooctylamine platinum(II)] | 4 mg/kg/inj | 207% | 229% and 207% | 16 mg/kg/inj | 2 | 167 | 2/6 | 8 | 256 | 0 | 3 | 81 | 8 | 88 | 16 | Incidence of BUN > 30 mg % (BDF1 mice [2]; 16 mg/kg ip): 0/5; Incidence of BUN > 30 mg % (BDF1 mice [2]; 24 mg/kg ip): 0/5; Ratio of Max. % T/C Complex/cDDP (M109 carcinoma; ip M109, relative to concomitant cisplatin): .52; Ratio of Max. % T/C Complex/cDDP (C26 carcinoma; ip C26, relative to concomitant cisplatin): .61; Deaths D.14 (BDF1 mice [3]; 16 mg/kg ip): 0/5; Deaths D.14 (BDF1 mice [3]; 24 mg/kg ip): 0/5; Solubility in methanol ([4]; methanol): soluble; Solubility in water ([4]; water): soluble; Ratio of Max. % T/C Complex/cDDP (B16 melanoma; ip B16, relative to concomitant cisplatin): .90
3 | N[C@@H]1CCCC[C@H]1N.[O]=[Cr](=[O])([O-])[O-].[Pt+2] (relative stereo) [Example 9, chromato trans(-)-1,2-diaminocyclohexane platinum(II)] | 6 mg/kg/inj and 12 mg/kg/inj | 143% and 214% | 150% and 200% | 24 mg/kg/inj and 48 mg/kg/inj | 6 | 172 | – | – | – | 0 | 20 | 119 | 24 | 106 | 48 | Incidence of BUN > 30 mg % (BDF1 mice [2]; 48 mg/kg ip): 0/5; Incidence of BUN > 30 mg % (BDF1 mice [2]; 72 mg/kg ip): 0/5; Deaths D.14 (BDF1 mice [3]; 48 mg/kg ip): 0/5; Deaths D.14 (BDF1 mice [3]; 72 mg/kg ip): 0/5
4 | N[C@@H]1CCCC[C@H]1N.O=C([O-])CC(=O)C(=O)[O-].[Pt+2] (relative stereo) [Example 2, oxaloacetato trans(-)-1,2-diaminocyclohexane platinum(II)] | 7.5 mg/kg/inj | 243% | 214% and 217% | 30 mg/kg/inj and 40 mg/kg/inj | 2 | 150 | 4/6 | 24 | 194 | 0 | 12 | 156 | 10 | 143 | 30 | Emesis Episodes (ferret; 16 mg/kg iv): 3; Emesis onset in responding animals (ferret; 16 mg/kg iv): 41 min; No. With Emesis/No. tested (ferret; 16 mg/kg iv): 1/1; Incidence of BUN > 30 mg % (BDF1 mice [2]; 30 mg/kg ip): 0/5; Incidence of BUN > 30 mg % (BDF1 mice [2]; 45 mg/kg ip): 0/4; Deaths D.14 (BDF1 mice [3]; 30 mg/kg ip): 0/5; Deaths D.14 (BDF1 mice [3]; 45 mg/kg ip): 1/5
5 | N[C@@H]1CCCC[C@H]1N.[O-]B([O-])O.[Pt+2] [Example 1, borato trans(-)-1,2-diaminocyclohexane platinum(II)] | 2 mg/kg/inj | 243% | 214% and 242% | 16 mg/kg/inj and 8 mg/kg/inj | 1 | 150 | 2/6 | 8 | 188 | 0 | 2 | 147 | 5 | 134 | 16 | Incidence of BUN > 30 mg % (BDF1 mice [2]; 16 mg/kg ip): 0/5; Incidence of BUN > 30 mg % (BDF1 mice [2]; 24 mg/kg ip): 0/3; Deaths D.14 (BDF1 mice [3]; 16 mg/kg ip): 0/5; Deaths D.14 (BDF1 mice [3]; 24 mg/kg ip): 3/5
6 | Cc1cn(C2CC(O)C(COP(=O)([O-])[O-])O2)c(=O)[nH]c1=O.NC1CCCCC1N.[Pt+2] (stereo not drawn) [Example 6, thymidylato trans(-)-1,2-diaminocyclohexane platinum(II)] | 10 mg/kg/inj | 221% | 200% and 207% | 40 mg/kg/inj and 45 mg/kg/inj | 6 | 177 | – | 20 | 175 | 0 | 12 | 95 | 36 | 109 | 40 | Emesis Episodes (ferret; 32 mg/kg iv): 13.5; Emesis onset in responding animals (ferret; 32 mg/kg iv): 17.5 min; No. With Emesis/No. tested (ferret; 32 mg/kg iv (lethal dose)): 2/2; Lethal dose (ferret; ferret, doses marked * = Lethal dose): 32 mg/kg iv; Incidence of BUN > 30 mg % (BDF1 mice [2]; 40 mg/kg ip): 0/5; Incidence of BUN > 30 mg % (BDF1 mice [2]; 60 mg/kg ip): 0/5; Deaths D.14 (BDF1 mice [3]; 40 mg/kg ip): 0/5; Deaths D.14 (BDF1 mice [3]; 60 mg/kg ip): 0/5
7 | CC(=O)CC(=O)[O-].CC(=O)CC(=O)[O-].N[C@@H]1CCCC[C@H]1N.[Pt+2] (relative stereo) [Example 4, bis(acetoacetato) trans(-)-1,2-diaminocyclohexane platinum(II)] | 5 mg/kg/inj | 214% | 200% and 207% | 20 mg/kg/inj and 18 mg/kg/inj | 1 | 150 | – | 12 | 163 | 0 | 8 | 119 | 5 | 120 | 20 | Incidence of BUN > 30 mg % (BDF1 mice [2]; 20 mg/kg ip): 0/5; Incidence of BUN > 30 mg % (BDF1 mice [2]; 30 mg/kg ip): 0/5; Cures/total (L1210 leukemia; L1210, QD 1 → 5, ip): 1/6; Deaths D.14 (BDF1 mice [3]; 20 mg/kg ip): 0/5; Deaths D.14 (BDF1 mice [3]; 30 mg/kg ip): 0/5
